Assay results taken from PubChem BioAssay AID248 (DTP/NCI, 2004).
Values joined by “and” are separate entries in the source; they are usually repeats but may differ in a detail not shown here. Equal entries are not always repeated. Inconclusive results and toxic doses are left out. Cut-off read from the data, not from the text of the source: active = T/C of 150% or more; inactive = T/C below 125%.

System: L1210 leukemia ip in BDF1 mice, survival T/C
Assay: NCI In Vivo Anticancer Drug Screen. Data for tumor model L1210 Leukemia (intraperitoneal) in B6D2F1 (BDF1) mice
Conditions: endpoint: mean survival time, higher = longer survival
Procedure, shortened: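 Tumor cells were implanted, animals were treated, and survival was followed. The result divides the treated measurement by the vehicle-control measurement.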

[1] = dose: 100.0 mg/kg/injection, schedule: Q04DX003 (ip), vehicle: saline
[2] = dose: 100.0 mg/kg/injection, schedule: Q04DX003 (ip), vehicle: Klucel (hydroxypropylcellulose) (HPC)
[3] = dose: 200.0 mg/kg/injection, schedule: Q04DX003 (ip), vehicle: Klucel (hydroxypropylcellulose) (HPC)
[4] = dose: 400.0 mg/kg/injection, schedule: Q04DX003 (ip), vehicle: Klucel (hydroxypropylcellulose) (HPC)
[5] = dose: 50.0 mg/kg/injection, schedule: Q04DX003 (ip), vehicle: Klucel (hydroxypropylcellulose) (HPC)
[6] = dose: 100.0 mg/kg/injection, schedule: Q01DX001 (ip), vehicle: saline
[7] = dose: 200.0 mg/kg/injection, schedule: Q01DX001 (ip), vehicle: saline

Measured: T/C

COc1nc(SC)nc2[nH]ccc12
inactive: dose: 75.0 mg/kg/injection, schedule: Q01DX001 (ip), vehicle: other 103 % of control | dose: 150.0 mg/kg/injection, schedule: Q01DX001 (ip), vehicle: other 100 % of control | dose: 300.0 mg/kg/injection, schedule: Q01DX001 (ip), vehicle: other 97 % of control

CC(NC(=O)OCc1ccccc1)C(=O)NC(CSCc1ccccc1)C(=O)O (configuration not stated)
inactive: dose: 100.0 mg/kg/injection, schedule: Q04DX003 (ip), vehicle: saline with Tween-80 97 % of control | dose: 200.0 mg/kg/injection, schedule: Q04DX003 (ip), vehicle: saline with Tween-80 97 % of control | dose: 400.0 mg/kg/injection, schedule: Q04DX003 (ip), vehicle: saline with Tween-80 97 % of control

CCCCCC(CN(C)C)C(O)/C=C/c1ccccc1Cl (configuration not stated)
inactive: dose: 25.0 mg/kg/injection, schedule: Q01DX009 (ip), vehicle: saline 102 % of control | dose: 25.0 mg/kg/injection, schedule: Q04DX003 (ip), vehicle: saline 96 % of control | dose: 50.0 mg/kg/injection, schedule: Q01DX009 (ip), vehicle: saline 94 % of control | dose: 50.0 mg/kg/injection, schedule: Q04DX003 (ip), vehicle: saline 97 % of control | [1] 95 % of control and 88 % of control

OCC(c1ccccc1)[P+](c1ccccc1)(c1ccccc1)c1ccccc1 (configuration not stated)
inactive: dose: 5.0 mg/kg/injection, schedule: Q01DX001 (ip), vehicle: saline 94 % of control | dose: 10.0 mg/kg/injection, schedule: Q01DX001 (ip), vehicle: saline 97 % of control | dose: 20.0 mg/kg/injection, schedule: Q01DX001 (ip), vehicle: saline 103 % of control | dose: 40.0 mg/kg/injection, schedule: Q01DX001 (ip), vehicle: saline 97 % of control | dose: 80.0 mg/kg/injection, schedule: Q01DX001 (ip), vehicle: saline 97 % of control

CC(=O)Nc1ccc(C(=O)/C=C/C(=O)O)c(O)c1
inactive: [1] 98 % of control | dose: 200.0 mg/kg/injection, schedule: Q04DX003 (ip), vehicle: saline 100 % of control | dose: 400.0 mg/kg/injection, schedule: Q04DX003 (ip), vehicle: saline 100 % of control

N=C([Se])c1cn(C2OC(CO)C(O)C2O)c2ncnc(N)c12 (configuration not stated)
inactive: dose: 0.09 mg/kg/injection, schedule: Q01DX009 (ip), vehicle: saline 109 % of control | dose: 0.19 mg/kg/injection, schedule: Q01DX005 (ip), vehicle: saline 119 % of control | dose: 0.19 mg/kg/injection, schedule: Q01DX009 (ip), vehicle: saline 108 % of control | dose: 0.39 mg/kg/injection, schedule: Q01DX005 (ip), vehicle: saline 117 % of control | dose: 0.39 mg/kg/injection, schedule: Q01DX009 (ip), vehicle: saline 104 % of control | dose: 0.78 mg/kg/injection, schedule: Q01DX005 (ip), vehicle: saline 106 % of control

Cc1cc2nc(C)c(=O)[nH]c2cc1C
inactive: dose: 100.0 mg/kg/injection, schedule: Q01DX009 (ip), vehicle: Klucel (hydroxypropylcellulose) (HPC) 95 % of control | [2] 96 % of control | dose: 200.0 mg/kg/injection, schedule: Q01DX009 (ip), vehicle: Klucel (hydroxypropylcellulose) (HPC) 98 % of control | [3] 92 % of control | dose: 400.0 mg/kg/injection, schedule: Q01DX009 (ip), vehicle: Klucel (hydroxypropylcellulose) (HPC) 91 % of control | [4] 92 % of control

O=C(O)c1cccc([N+](=O)[O-])c1[N+](=O)[O-]
inactive: [5] 94 % of control | dose: 100.0 mg/kg/injection, schedule: Q01DX001 (ip), vehicle: carboxymethylcellulose (CMC) 95 % of control | [2] 92 % of control | dose: 200.0 mg/kg/injection, schedule: Q01DX001 (ip), vehicle: carboxymethylcellulose (CMC) 93 % of control | [3] 103 % of control | dose: 400.0 mg/kg/injection, schedule: Q01DX001 (ip), vehicle: carboxymethylcellulose (CMC) 93 % of control | [4] 92 % of control

c1ccc(C2=C(c3ccccc3)CSSC2)cc1
inactive: [5] 100 % of control | [2] 100 % of control | [3] 100 % of control

CC1(C)N=C(N)N=C(N)N1c1cccc(OCCCOc2ccc(NC(=O)CBr)cc2)c1
inactive: dose: 45.0 mg/kg/injection, schedule: Q01DX009 (ip), vehicle: saline 104 % of control | dose: 67.0 mg/kg/injection, schedule: Q01DX009 (ip), vehicle: saline 104 % of control | [6] 110 % of control | dose: 100.0 mg/kg/injection, schedule: Q01DX009 (ip), vehicle: saline 102 % of control | [7] 97 % of control

NNc1ccc(S(=O)(=O)C(F)F)cc1
inactive: [6] 95 % of control | [7] 92 % of control | dose: 400.0 mg/kg/injection, schedule: Q01DX001 (ip), vehicle: saline 93 % of control

c1ccc(C(CN2CCCCC2)c2ccccc2)cc1
inactive: dose: 44.0 mg/kg/injection, schedule: Q01DX Z (ip), vehicle: methylcellulose (MC) 93 % of control | dose: 66.0 mg/kg/injection, schedule: Q01DX Z (ip), vehicle: methylcellulose (MC) 96 % of control | dose: 100.0 mg/kg/injection, schedule: Q01DX Z (ip), vehicle: methylcellulose (MC) 105 % of control

CNNC(=O)c1ccncc1
inactive: dose: 62.0 mg/kg/injection, schedule: Q01DX015 (ip), vehicle: water 91 % of control | dose: 125.0 mg/kg/injection, schedule: Q01DX015 (ip), vehicle: water 98 % of control

CC(=O)[O][Pb]([CH3])([CH3])[CH3]
inactive: dose: 5.0 mg/kg/injection, schedule: Q01DX001 (ip), vehicle: carboxymethylcellulose (CMC) 110 % of control | dose: 10.0 mg/kg/injection, schedule: Q01DX001 (ip), vehicle: carboxymethylcellulose (CMC) 103 % of control

CCCCCCCCCCCC(=O)CCC
inactive: dose: 100.0 mg/kg/injection, schedule: Q01DX009 (ip), vehicle: other 87 % of control | dose: 100.0 mg/kg/injection, schedule: Q04DX003 (ip), vehicle: other 103 % of control | dose: 200.0 mg/kg/injection, schedule: Q01DX009 (ip), vehicle: other 95 % of control | dose: 200.0 mg/kg/injection, schedule: Q04DX003 (ip), vehicle: other 105 % of control | dose: 400.0 mg/kg/injection, schedule: Q01DX009 (ip), vehicle: other 89 % of control | dose: 400.0 mg/kg/injection, schedule: Q04DX003 (ip), vehicle: other 103 % of control

CC(=O)OCC1OC(n2ncc3c(=O)[nH]cnc32)C(OC(C)=O)C1OC(C)=O (configuration not stated)
inactive: dose: 12.5 mg/kg/injection, schedule: Q01DX005 (ip), vehicle: water 103 % of control | dose: 25.0 mg/kg/injection, schedule: Q01DX005 (ip), vehicle: water 104 % of control | dose: 50.0 mg/kg/injection, schedule: Q01DX005 (ip), vehicle: water 97 % of control | dose: 100.0 mg/kg/injection, schedule: Q01DX005 (ip), vehicle: water 98 % of control | dose: 200.0 mg/kg/injection, schedule: Q01DX005 (ip), vehicle: water 92 % of control

ClCC1=NCCCN1
inactive: dose: 3.13 mg/kg/injection, schedule: Q01DX009 (ip), vehicle: Klucel (hydroxypropylcellulose) (HPC) 93 % of control | dose: 6.25 mg/kg/injection, schedule: Q01DX009 (ip), vehicle: Klucel (hydroxypropylcellulose) (HPC) 97 % of control | dose: 12.5 mg/kg/injection, schedule: Q01DX009 (ip), vehicle: Klucel (hydroxypropylcellulose) (HPC) 97 % of control | dose: 12.5 mg/kg/injection, schedule: Q04DX002 (ip), vehicle: Klucel (hydroxypropylcellulose) (HPC) 97 % of control | dose: 25.0 mg/kg/injection, schedule: Q01DX009 (ip), vehicle: Klucel (hydroxypropylcellulose) (HPC) 97 % of control | dose: 25.0 mg/kg/injection, schedule: Q04DX002 (ip), vehicle: Klucel (hydroxypropylcellulose) (HPC) 104 % of control | dose: 50.0 mg/kg/injection, schedule: Q01DX009 (ip), vehicle: Klucel (hydroxypropylcellulose) (HPC) 97 % of control | dose: 50.0 mg/kg/injection, schedule: Q04DX002 (ip), vehicle: Klucel (hydroxypropylcellulose) (HPC) 104 % of control | dose: 100.0 mg/kg/injection, schedule: Q04DX002 (ip), vehicle: Klucel (hydroxypropylcellulose) (HPC) 98 % of control

O=[N+]([O-])c1cccc(C=Nc2cccc([N+](=O)[O-])c2)c1
inactive: dose: 100.0 mg/kg/injection, schedule: Q04DX003 (ip), vehicle: gum acacia 95 % of control | dose: 200.0 mg/kg/injection, schedule: Q04DX003 (ip), vehicle: gum acacia 93 % of control | dose: 400.0 mg/kg/injection, schedule: Q04DX003 (ip), vehicle: gum acacia 98 % of control

CC(=O)Oc1ccc2c(c1)oc(=O)c1ccc(C)cc12
inactive: [2] 92 % of control | [3] 87 % of control | [4] 92 % of control
